Data taken from US12137691B2, “Method for treating plant seed” (RIJK ZWAAN ZAADTEELT EN ZAADHANDEL B.V., priority 2018, dated 2024).

What was measured:
[1] = tested on: P. irregulare; experiment: Cornsalad seed sown in soil inoculated with P. irregulare, healthy seedlings; format: in vivo, Pythium irregulare; conditions: 500 μg Fe(II)SO4 per seed, no vitamin C, 7, 11, 17 and 24 days after sowing
Method: (§1) FIG. 7B is a graph showing the effect of hot water treatment of cornsalad seeds, and subsequent treatment with 500 μg/seed of Fe(II)SO4. The effect is expressed in the percentage of seedlings that are still alive and healthy 7, 11, 17 and 24 days after sowing in soil inoculated with P. irregulare.
The experiment was also performed on the cornsalad seed when sown in soil inoculated with P. irregulare, prepared as described in Example 2. The percentage of healthy seedlings was determined 7, 11, 17 and 24 days after sowing.

[2] = tested on: Rhizoctonia isolate AU 14/243; experiment: In vitro growth inhibition on PDA agar plates with imbedded coated spinach seeds, Rhizoctonia; format: cell-based
Method: FIG. 4A is a schematic picture of an with Rhizoctonia-infected agar plate (1) comprising untreated seeds (2) and seeds coated with 500 μg/seed Fe(II)SO4 (3). Plates were inoculated with Rhizoctonia in the center of the plates (4). The growth of Rhizoctonia was measured after 1 day, 2 days, and 4 days post-inoculation (dpi).
(§2) PDA agar plates were prepared in which spinach seeds of the variety Platypus coated with 250 μg Fe(II)SO4 per seed and 1.1 Meq. vitamin C, 500 μg Fe(II)SO4 per seed and 1.1 Meq. vitamin C, or 500 μg Fe(II)SO4 per seed, were imbedded and inoculated with Rhizoctonia isolate AU 14/243 or Fusarium oxysporum isolate MAFF103063.

[3] = tested on: Pythium irregulare isolate 779-2010; experiment: Germination of hot water treated spinach seed and survival of seedlings in soil inoculated with Pythium irregulare; format: in vivo; conditions: for effect on the health of the growing plants: coating with only vitamin C (175 or 350 μg per seed)
Method: A solution of an iron salt, such as for instance Fe(II)SO4, and vitamin C in water is prepared by stirring of the chemicals until a clear, colorless solution is obtained.
A rotary coater is charged with seeds and the iron salt with vitamin C solution is added to the seeds via a spinning disk.
The seeds are dried after coating at 25° C./35 RH until the moisture in the seed is equal to the moisture of the seed before treatment with the iron salt solution.
The effect of the iron salt solution prepared in Example 1 on both germination and survival against Pythium is investigated on hot water treated spinach seeds of the variety Mandril. A suitable protocol for the hot water treatment is described in Extension Factsheet Ohio State University; Sally A. Miller and Melanie L Lewis Ivey; “Hot Water Treatment of Vegetable Seeds to Eradicate Bacterial Plant Pathogens in Organic Production Systems”.
The hot water treated spinach seeds were coated with an Fe(II)SO4 coating supplemented with vitamin C. Two different concentrations of Fe(II)SO4 and vitamin C in the coating solution were used: 1 μg Fe(II)SO4 per seed and 1.1 molar equivalents (Meq.) vitamin C, and 250 μg Fe(II)SO4 per seed and 1.1 Meq. vitamin C. As a control, hot water treated seeds without coating and untreated seeds were used.
Seeds were sown in trays. Germination of the seeds was assessed in trays without any inoculum. The effect of the coating on the survival of seedlings was assessed in trays inoculated with Pythium irregulare isolate 779-2010.
(§3) Trays without the inoculum were prepared by mixing+/−10 L of sowing soil with 1 L of tap water in white trays. In total, 117 sowing holes were made in the trays with a press. To prevent any interaction between treatments, only 1 treatment per tray was sown. For each treatment, 3 replicates of 117 seeds were sown. The seeds were topped with two cups (diameter 12 cm) of sowing soil containing 5 grams of inoculum media. Trays were placed in a controlled climate cell at 20° C., LID->14/10 and a RH of 60%. The number of germinated seeds was counted at 7 days, and the amount of surviving seedlings was counted 7 and 14 days after sowing and inoculation. Trays were physically separated from trays containing Pythium inoculum, to prevent cross-contamination.
The inoculum was prepared by growing Pythium irregulare on fresh V8 plates for 3 days at 28° C. After incubation, the spores and mycelium were harvested by adding 20 ml of sterile PBS to the plate and scraping it with a sterile spatula. This inoculum was added to the sowing soil.
as §3, with “with” for “without the”, “treatment 3,” for “treatment, 3”, “(mixed thoroughly in a bucket before topping off).” for “media.”, “inoculation.” for “inoculation. Trays were physically separated from trays containing Pythium inoculum, to prevent cross-contamination.”
The experiment of Example 2 was repeated with the following modifications:
the spinach seed used are of the varieties Platypus and Meerkat […]

[4] = tested on: Fusarium oxysporum isolate MAFF103063; experiment: In vitro growth inhibition on PDA agar plates with imbedded coated spinach seeds, Fusarium; format: cell-based
Method: FIG. 4B is a schematic picture of an with Fusarium-infected agar plate (1) comprising untreated seeds (2) and seeds coated with 500 μg/seed Fe(II)SO4 (3). The growth of Fusarium was measured after 2 days, 4 days, and 7 days post-inoculation (dpi).
as §2

[5] = tested on: damping-off; experiment: Cornsalad seed sown in soil from a field known to suffer from damping-off, healthy seedlings; format: in vivo; conditions: 500 μg Fe(II)SO4 per seed, no vitamin C, 7, 11, 17 and 24 days after sowing
Method: as §1, with “7A” for “7B”, “known to suffer from damping-off.” for “inoculated with P. irregulare.”
Cornsalad seed was coated with 500 μg/Fe(II)SO4 per seed as described in Example 1, except that no vitamin C was added. The seed was sown in soil from a field known to suffer from damping-off. The percentage of healthy seedlings was determined 7, 11, 17 and 24 days after sowing.

[6] = tested on: fungal growth; experiment: Reducing fungal growth on plant seedlings and plants (general statement); format: in vivo; conditions: general statement in the description, no test details
[7] = tested on: damping-off; experiment: Beetroot seed sown in a field known to suffer from damping-off, healthy seedlings; format: in vivo; conditions: beetroot variety Zeppo, 500 μg Fe(II)SO4 per seed, no vitamin C, 14 and 21 days after sowing
Method: FIG. 6 is a graph showing the effect of treatment of seeds of the beetroot variety Zeppo with 500 μg/seed of Fe(II)SO4. The effect is expressed in the number of seedlings that are still alive and healthy 14 and 21 days after sowing.
Seed of the beetroot variety Zeppo was coated with 500 μg/Fe(II)SO4 per seed as described in Example 1, except that no vitamin C was added. The seed was sown in a field known to suffer from damping-off. The number of healthy seedlings was determined 14 days and 21 days after sowing.

[8] = 4 days post inoculation, 250 μg Fe(II)SO4 per seed and 1.1 Meq. vitamin C, or 500 μg Fe(II)SO4 per seed alone
[9] = Platypus seed, 250 μg Fe(II)SO4 per seed and 1.1 Meq. vitamin C, or 500 μg Fe(II)SO4 per seed alone

Compound: O=S(=O)([O-])[O-].[Fe+2] [Fe(II)SO4, iron(II)sulfate]
- protection of cornsalad against damping-off (healthy seedlings) [1]: protects cornsalad against damping-off
- growth of the Rhizoctonia isolate over the plate [2, 8]: the isolate covered the whole plate
- inhibition of Rhizoctonia growth (weaker when compared to 500 μg Fe(II)SO4 and vitamin C) [2, 9]: Inhibition was also observed
- zone of inhibition around the coated seeds, Rhizoctonia ([2]; after 4 days post-inoculation, 500 μg/seed Fe(II)SO4, not around untreated seeds): zone of inhibition (5) is still visible
- dose-effect response (seedlings alive and healthy 14 days after sowing) ([3]; spinach varieties Finwhale and Mandril, hot water treated, 50, 100, 150, 200 and 250 μg Fe(II)SO4 per seed): linear dose-effect response
- doses effective to increase the germination and survival of hot-water treated seed ([3]; spinach varieties Finwhale and Mandril, dose per seed, dose to match untreated seeds depends on variety and/or batch): ≥ 50 µg
- effect on the health of the plants ([3]; spinach varieties Platypus and Meerkat, hot water treated, 250 or 500 μg Fe(II)SO4 per seed, with or without 1.1 Meq. vitamin C): positive effect
- growth of the Fusarium isolate over the plate [4, 8]: the isolate covered the whole plate
- inhibition of Fusarium growth (weaker when compared to 500 μg Fe(II)SO4 and vitamin C) [4, 9]: Inhibition was also observed
- zone of inhibition around the coated seeds, Fusarium ([4]; after 7 days post-inoculation, 500 μg/seed Fe(II)SO4, not around untreated seeds): zone of inhibition (5) is still visible
- protection of cornsalad against damping-off (healthy seedlings) [5]: protects cornsalad against damping-off
- effects in reducing fungal growth on the plant seedlings and plants [6]: good effects
- protection of beetroot against damping-off (healthy seedlings) [7]: protects beetroot against damping-off

Compound: [Br-].[Br-].[Fe+2] [Iron(II)bromide]
- effects in reducing fungal growth on the plant seedlings and plants [6]: good effects

Compound: O=S(=O)([O-])[O-].O=S(=O)([O-])[O-].[Fe+2].[NH4+].[NH4+] [iron(II)ammonium sulfate]
- effects in reducing fungal growth on the plant seedlings and plants [6]: good effects

Compound: [Cl][Fe][Cl] [iron(II)chloride]
- effects in reducing fungal growth on the plant seedlings and plants [6]: good effects

Compound: O=S(=O)([O-])[O-].O=S(=O)([O-])[O-].[Fe+3].[NH4+] [iron(III)ammonium sulfate]
- effects in reducing fungal growth on the plant seedlings and plants [6]: good effects

Compound: [Br-].[Br-].[Br-].[Fe+3] [iron(III)bromide]
- effects in reducing fungal growth on the plant seedlings and plants [6]: good effects

Compound: [Cl][Fe]([Cl])[Cl] [iron(III)chloride]
- effects in reducing fungal growth on the plant seedlings and plants [6]: good effects

Compound: O=S(=O)([O-])[O-].O=S(=O)([O-])[O-].O=S(=O)([O-])[O-].[Fe+3].[Fe+3] [iron(III)sulfate]
- effects in reducing fungal growth on the plant seedlings and plants [6]: good effects

Compound: O=C1O[C@H]([C@@H](O)CO)C(O)=C1O [vitamin C, reference compound]
- effect on the health of the growing plants ([3]; spinach variety Meerkat, hot water treated): not observed
- effect on the health of the growing plants ([3]; spinach variety Platypus, hot water treated): some effect
